# Experimental data taken from PubChem BioAssay AID248 (DTP/NCI, 2004).
# Where “and” joins values, the source holds several entries; their conditions need not be identical. Identical values can stand only once. Inconclusive results and toxic doses are left out.
# Tested on: L1210 leukemia ip in BDF1 mice, survival T/C
# Assay: NCI In Vivo Anticancer Drug Screen. Data for tumor model L1210 Leukemia (intraperitoneal) in B6D2F1 (BDF1) mice
# Conditions: endpoint: mean survival time, higher = longer survival
# How it was run: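 Tumor cells were implanted, animals were treated, and survival was followed. The result divides the treated measurement by the vehicle-control measurement.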
# [1] = dose: 100.0 mg/kg/injection, schedule: Q01DX001 (ip), vehicle: saline
# [2] = dose: 200.0 mg/kg/injection, schedule: Q01DX001 (ip), vehicle: saline
# [3] = dose: 400.0 mg/kg/injection, schedule: Q01DX001 (ip), vehicle: saline
# [4] = dose: 12.5 mg/kg/injection, schedule: Q01DX001 (ip), vehicle: saline with Tween-80
# [5] = dose: 25.0 mg/kg/injection, schedule: Q01DX001 (ip), vehicle: saline with Tween-80
# [6] = dose: 100.0 mg/kg/injection, schedule: Q01DX001 (ip), vehicle: carboxymethylcellulose (CMC)
# [7] = dose: 200.0 mg/kg/injection, schedule: Q01DX001 (ip), vehicle: carboxymethylcellulose (CMC)
# [8] = dose: 400.0 mg/kg/injection, schedule: Q01DX001 (ip), vehicle: carboxymethylcellulose (CMC)
# [9] = dose: 50.0 mg/kg/injection, schedule: Q04DX003 (ip), vehicle: saline with Tween-80
# [10] = dose: 100.0 mg/kg/injection, schedule: Q04DX002 (ip), vehicle: Klucel (hydroxypropylcellulose) (HPC)
# [11] = dose: 200.0 mg/kg/injection, schedule: Q04DX002 (ip), vehicle: Klucel (hydroxypropylcellulose) (HPC)
# [12] = dose: 400.0 mg/kg/injection, schedule: Q04DX002 (ip), vehicle: Klucel (hydroxypropylcellulose) (HPC)
smiles,measurement,setting,value
O=C(/C(=C\c1ccccc1)Oc1ccc([N+](=O)[O-])cc1)c1ccccc1,T/C,[1],88 % of control
same,T/C,[2],92 % of control
same,T/C,[3],95 % of control
Cc1ccc(S(=O)(=O)N2/C(=C/c3ccccc3)C(=O)c3ccccc3-c3ccccc32)cc1,T/C,[1],96 % of control
same,T/C,[2],91 % of control
same,T/C,[3],90 % of control
Nc1ncnc2nc(-c3ccc(Cl)cc3Cl)[nH]c12,T/C,"dose: 6.25 mg/kg/injection, schedule: Q01DX001 (ip), vehicle: saline with Tween-80",101 % of control
same,T/C,[4],106 % of control
same,T/C,[5],98 % of control
Clc1ccc2c3c(cccc13)CC2,T/C,"dose: 75.0 mg/kg/injection, schedule: Q01DX001 (ip), vehicle: carboxymethylcellulose (CMC)",97 % of control
same,T/C,"dose: 150.0 mg/kg/injection, schedule: Q01DX001 (ip), vehicle: carboxymethylcellulose (CMC)",97 % of control
same,T/C,"dose: 300.0 mg/kg/injection, schedule: Q01DX001 (ip), vehicle: carboxymethylcellulose (CMC)",97 % of control
NCC(=O)Nc1ccc(S(=O)(=O)c2ccc(NC(=O)CN)cc2)cc1,T/C,[1],104 % of control
same,T/C,[2],101 % of control
same,T/C,[3],98 % of control
O=C(NP(=O)(N1CC1)N1CC1)OCCCCCCOC(=O)NP(=O)(N1CC1)N1CC1,T/C,[6],101 % of control
same,T/C,[7],113 % of control
same,T/C,[8],108 % of control
O=C(CSc1cc(Cl)ccc1Cl)Nc1ccccc1,T/C,"dose: 100.0 mg/kg/injection, schedule: Q01DX001 (ip), vehicle: other",95 % of control
same,T/C,"dose: 200.0 mg/kg/injection, schedule: Q01DX001 (ip), vehicle: other",96 % of control
same,T/C,"dose: 400.0 mg/kg/injection, schedule: Q01DX001 (ip), vehicle: other",96 % of control
Cc1c(C(=O)O)c(C)c([N+](=O)[O-])c(C)c1[N+](=O)[O-],T/C,[9],95 % of control
same,T/C,"dose: 100.0 mg/kg/injection, schedule: Q04DX003 (ip), vehicle: Klucel (hydroxypropylcellulose) (HPC)",90 % of control
same,T/C,"dose: 100.0 mg/kg/injection, schedule: Q04DX003 (ip), vehicle: saline with Tween-80",97 % of control
same,T/C,"dose: 200.0 mg/kg/injection, schedule: Q04DX003 (ip), vehicle: Klucel (hydroxypropylcellulose) (HPC)",95 % of control
same,T/C,"dose: 200.0 mg/kg/injection, schedule: Q04DX003 (ip), vehicle: saline with Tween-80",97 % of control
same,T/C,"dose: 400.0 mg/kg/injection, schedule: Q04DX003 (ip), vehicle: Klucel (hydroxypropylcellulose) (HPC)",93 % of control
C=CC(C)NC(=S)NNC(=S)NC (centres undefined),T/C,"dose: 15.0 mg/kg/injection, schedule: Q01DX015 (ip), vehicle: carboxymethylcellulose (CMC)",95 % of control
same,T/C,"dose: 30.0 mg/kg/injection, schedule: Q01DX015 (ip), vehicle: carboxymethylcellulose (CMC)",104 % of control
same,T/C,"dose: 50.0 mg/kg/injection, schedule: Q01DX001 (ip), vehicle: carboxymethylcellulose (CMC)",104 % of control
same,T/C,"dose: 60.0 mg/kg/injection, schedule: Q01DX015 (ip), vehicle: carboxymethylcellulose (CMC)",95 % of control
same,T/C,[6],105 % of control
same,T/C,"dose: 120.0 mg/kg/injection, schedule: Q01DX015 (ip), vehicle: carboxymethylcellulose (CMC)",98 % of control
same,T/C,[7],109 % of control
same,T/C,"dose: 240.0 mg/kg/injection, schedule: Q01DX015 (ip), vehicle: carboxymethylcellulose (CMC)",87 % of control and 89 % of control
CSc1nc(-c2ccc([N+](=O)[O-])cc2)oc1/N=C/c1ccc([N+](=O)[O-])cc1,T/C,[10],96 % of control
same,T/C,[11],96 % of control
same,T/C,[12],96 % of control
CC1CN(c2nc3ccccc3o2)C(C)CN1c1nc2ccccc2o1 (centres undefined),T/C,[6],96 % of control
same,T/C,[7],94 % of control
same,T/C,[8],89 % of control
CC(=O)CC(C)=NCCN=C(C)CC(C)=O.[Cu],T/C,"dose: 6.0 mg/kg/injection, schedule: Q01DX009 (ip), vehicle: saline with Tween-80",97 % of control
same,T/C,"dose: 12.0 mg/kg/injection, schedule: Q01DX009 (ip), vehicle: saline with Tween-80",98 % of control
same,T/C,[4],94 % of control
same,T/C,"dose: 12.5 mg/kg/injection, schedule: Q04DX003 (ip), vehicle: saline with Tween-80",93 % of control
same,T/C,[5],91 % of control
same,T/C,"dose: 25.0 mg/kg/injection, schedule: Q01DX009 (ip), vehicle: saline with Tween-80",101 % of control
same,T/C,"dose: 25.0 mg/kg/injection, schedule: Q04DX003 (ip), vehicle: saline with Tween-80",100 % of control
same,T/C,"dose: 50.0 mg/kg/injection, schedule: Q01DX001 (ip), vehicle: saline with Tween-80",91 % of control
same,T/C,[9],88 % of control
c1ccc(-c2c3ccccc3c(-c3ccccc3)c3cc4ccccc4cc23)cc1,T/C,[10],95 % of control
same,T/C,[11],98 % of control
same,T/C,[12],92 % of control
C/C(CC(=O)O)=C(\C)C(=O)O,T/C,"dose: 100.0 mg/kg/injection, schedule: Q01DX009 (ip), vehicle: water",95 % of control
same,T/C,"dose: 100.0 mg/kg/injection, schedule: Q04DX003 (ip), vehicle: water",96 % of control
same,T/C,"dose: 200.0 mg/kg/injection, schedule: Q01DX009 (ip), vehicle: water",91 % of control
same,T/C,"dose: 200.0 mg/kg/injection, schedule: Q04DX003 (ip), vehicle: water",102 % of control
same,T/C,"dose: 400.0 mg/kg/injection, schedule: Q04DX003 (ip), vehicle: water",104 % of control
C[PH+](c1ccccc1)c1ccccc1.C[PH+](c1ccccc1)c1ccccc1.O=C([S-])[S-].[Pt+2],T/C,"dose: 75.0 mg/kg/injection, schedule: Q04DX003 (ip), vehicle: saline",97 % of control
same,T/C,"dose: 150.0 mg/kg/injection, schedule: Q04DX003 (ip), vehicle: saline",92 % of control
same,T/C,"dose: 300.0 mg/kg/injection, schedule: Q04DX003 (ip), vehicle: saline",100 % of control
S=C(NCc1ccccc1)Nc1ncn[nH]1,T/C,"dose: 25.0 mg/kg/injection, schedule: Q01DX009 (ip), vehicle: saline",100 % of control
same,T/C,"dose: 25.0 mg/kg/injection, schedule: Q04DX003 (ip), vehicle: saline",92 % of control
same,T/C,"dose: 50.0 mg/kg/injection, schedule: Q01DX009 (ip), vehicle: saline",94 % of control
same,T/C,"dose: 50.0 mg/kg/injection, schedule: Q04DX003 (ip), vehicle: saline",92 % of control
same,T/C,"dose: 100.0 mg/kg/injection, schedule: Q01DX009 (ip), vehicle: saline",90 % of control
same,T/C,"dose: 100.0 mg/kg/injection, schedule: Q04DX003 (ip), vehicle: saline",92 % of control
CN(C)C(=S)Sc1ccc([N+](=O)[O-])cc1,T/C,"dose: 75.0 mg/kg/injection, schedule: Q01DX001 (ip), vehicle: other",103 % of control
same,T/C,"dose: 150.0 mg/kg/injection, schedule: Q01DX001 (ip), vehicle: other",96 % of control
same,T/C,"dose: 300.0 mg/kg/injection, schedule: Q01DX001 (ip), vehicle: other",91 % of control
CCOC(=O)CCC(C)(C#N)C(C#N)C(=O)OCC (centres undefined),T/C,"dose: 100.0 mg/kg/injection, schedule: Q01DX009 (ip), vehicle: saline sonified",97 % of control
same,T/C,"dose: 100.0 mg/kg/injection, schedule: Q04DX003 (ip), vehicle: saline sonified",108 % of control
same,T/C,"dose: 200.0 mg/kg/injection, schedule: Q01DX009 (ip), vehicle: saline sonified",110 % of control
same,T/C,"dose: 200.0 mg/kg/injection, schedule: Q04DX003 (ip), vehicle: saline sonified",97 % of control
same,T/C,"dose: 400.0 mg/kg/injection, schedule: Q01DX009 (ip), vehicle: saline sonified",100 % of control
same,T/C,"dose: 400.0 mg/kg/injection, schedule: Q04DX003 (ip), vehicle: saline sonified",98 % of control
CC1C(C(=O)c2ccc(-c3ccccc3)cc2)N1C(C)(C)C (centres undefined),T/C,"dose: 100.0 mg/kg/injection, schedule: Q01DX001 (ip), vehicle: Klucel (hydroxypropylcellulose) (HPC)",87 % of control
same,T/C,"dose: 200.0 mg/kg/injection, schedule: Q01DX001 (ip), vehicle: Klucel (hydroxypropylcellulose) (HPC)",93 % of control
same,T/C,"dose: 400.0 mg/kg/injection, schedule: Q01DX001 (ip), vehicle: Klucel (hydroxypropylcellulose) (HPC)",94 % of control
O=C(NC(C(=O)SC1=NC=NC2=NC=NC21)C(SC1=NC=NC2=NC=NC21)c1cccnc1)c1ccccc1 (centres undefined),T/C,"dose: 37.5 mg/kg/injection, schedule: Q01DX Z (ip), vehicle: saline",153 % of control
CN1CCN(c2c3c(nc4ccccc24)CCCC3)CC1,T/C,[1],96 % of control
c1ccc2c(c1)CCc1ccccc1CN(CCNC1=NCCN1)C2,T/C,"dose: 6.25 mg/kg/injection, schedule: Q01DX009 (ip), vehicle: Klucel (hydroxypropylcellulose) (HPC)",96 % of control
same,T/C,"dose: 12.5 mg/kg/injection, schedule: Q01DX009 (ip), vehicle: Klucel (hydroxypropylcellulose) (HPC)",91 % of control
same,T/C,"dose: 25.0 mg/kg/injection, schedule: Q01DX009 (ip), vehicle: Klucel (hydroxypropylcellulose) (HPC)",91 % of control
